Reference: patent US20230303552A1, “ARYLSULFONYL DERIVATIVES AND THEIR USE AS MUSCARINIC ACETYLCHOLINE RECEPTOR M5 INHIBITORS” (Vanderbilt University, priority 2020, published 2023)

Molecular target: T1, human M5 receptors (hM5) (Homo sapiens, UniProt P08912)
T1 construct: expressed in transfected cells
T1 sequence (P08912 1-532): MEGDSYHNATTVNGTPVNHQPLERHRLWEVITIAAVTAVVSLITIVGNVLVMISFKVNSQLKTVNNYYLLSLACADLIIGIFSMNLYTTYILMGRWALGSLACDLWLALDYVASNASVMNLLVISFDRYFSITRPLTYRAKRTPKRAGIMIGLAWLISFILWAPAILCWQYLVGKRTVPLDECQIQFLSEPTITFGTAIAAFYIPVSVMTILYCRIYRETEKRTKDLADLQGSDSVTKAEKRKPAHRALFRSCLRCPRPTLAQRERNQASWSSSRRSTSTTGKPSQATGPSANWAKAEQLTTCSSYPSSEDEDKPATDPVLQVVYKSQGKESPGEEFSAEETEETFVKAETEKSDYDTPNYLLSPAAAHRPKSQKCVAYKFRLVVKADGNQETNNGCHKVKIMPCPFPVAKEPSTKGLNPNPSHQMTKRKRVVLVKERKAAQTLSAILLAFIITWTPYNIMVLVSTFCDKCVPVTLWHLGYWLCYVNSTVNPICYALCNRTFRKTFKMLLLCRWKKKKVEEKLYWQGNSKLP
Experiment: Cell-based functional calcium mobilization assay of mAChR M5 activity (inhibition of EC80 acetylcholine response) in CHO cells
Conditions: CHO cells stably expressing hM5; for IC50: calcium flux (Fluo-4), EC80 acetylcholine addition; for EC80 MIN: minimum of EC80 acetylcholine response, normalized to maximum acetylcholine response
Experimental: All functional cell-based assays were performed essentially as previously described (Marlo et al., Mol.Pharm. 2009, 75(3), 577-588; Brady et al., J. Pharm. & Exp. Ther. 2008, 327, 941-953). Initial, single point (10 µM) competitive and non-competitive inhibitor characterization was performed in stable Chinese Hamster Ovary (CHO) cell lines constitutively expressing human M5 receptors. These were plated at 15,000 cells per 20 µL per well in Greiner 384-well black-walled, TC-treated, clear-bottomed plates (Fisher) in Ham’s F12 medium supplemented with 10% FBS and 20 mM HEPES. Cells were incubated overnight at 37° C. under 5% CO2. The following day, medium was exchanged with assay buffer (Hank’s Balanced Salt Solution supplemented with 20 mM HEPES and 2.5 mM Probenecid, pH 7.4) leaving 20 µL of assay buffer in each well. This was followed by the addition of 20 µL of 2.3 µM of Fluo-4 AM (Invitrogen) in assay buffer (final concentration 1.15 µM). The cells were then incubated 50 minutes at 37° C. under 5% CO2. The assay buffer plus dye was then exchanged with fresh assay buffer leaving a volume of 20 µL in each well. Test compounds were diluted into assay buffer to a 2X (20 µM) concentration in 0.2% dimethylsulfoxide (DMSO) in columns 3 - 22 with matching DMSO concentration in columns 1, 2, 23, and […]; compounds were added to the assay for a final concentration of 10 µM and a final DMSO concentration of 0.1%. Acetylcholine (Sigma-Aldrich) was prepared to provide 5X concentrations of EC20, EC80, and ECmax in the triple-addition assay, providing a signal window to view agonism, potentiation, and inhibition of the acetylcholine response as well as a means to normalize to the maximum acetylcholine response.
Either an FDSS (Hamamatsu) or Panoptic (WaveFront Biosciences) kinetic imaging plate reader was used for assay execution and measurement of calcium flux. After establishing baseline fluorescence, test compounds (20 µL) were added to the cells using the reader’s integrated pipettor and allowed to equilibrate for 140 seconds before addition of the EC20 concentration of acetylcholine (10 µL) along with vehicle in selected DMSO-only wells in the outer two columns. The EC80 concentration of acetylcholine (10 µL) was added 125 seconds after the EC20 addition along with ECmax concentration in the wells receiving vehicle in the second addition. The raw fluorescence data from each well was normalized to the corresponding initial fluorescence reading (static ratio). The maximum fluorescence value following each addition was determined and the minimum value within that same timeframe was subtracted for each well then normalized to the average of the ECmax maximum-minimum response, providing a %AChmax value for each addition for each well. The single point values represent mean values determined within the EC80 addition timeframe obtained from at least three independent determinations performed in triplicate or greater (error bars represent +/- SEM) unless otherwise specified.
Further characterization of competitive and non-competitive inhibitor compounds (compound potency and mAChR subtype-selectivity) was performed on the FDSS with calcium mobilization assays performed as previously described (Marlo et al., 2009; Brady et al., 2008) and in a format similar to that described above using the same reagents. CHO cells stably expressing hM1, hM2/Gqi5, hM3, hM4/Gqi5, hM5, rM1, rM2/Gqi5, rM3, rM4/Gqi5, or rMs were plated in the manner described above. A ten-point concentration range of test compound was serial diluted in assay buffer to 2X final concentration and acetylcholine was diluted in assay buffer to 5X of the EC20 and EC80 concentrations, determined empirically and 5X maximal (2 mM final concentration) stock concentrations. FDSS protocols were carried out as described above; the static ratio was calculated and the minimum response subtracted from the maximum response within the timeframe of each addition. […]

Structure (SMILES)	IC50	EC80 MIN
CC1Cc2cc(S(=O)(=O)N3CC[C@@H](C(=O)Nc4ccc5scnc5c4)C3)ccc2O1 (mixture of isomers) [Compound 88, (3R)-N-(benzo[d]thiazol-5-yl)-1-((2-methyl-2,3-dihydrobenzofuran-5-yl)sulfonyll)pyrrolidine-3-carboxamide]	4960 nM	3%
CC1COc2ccc(S(=O)(=O)N3CC[C@@H](C(=O)Nc4ccc5scnc5c4)C3)cc21 (mixture of isomers) [Compound 132, (3R)-N-(benzo[d]thiazol-5-yl)-1-((3-methyl-2,3-dihydrobenzofuran-5-yl)sulfonyl)pyrrolidine-3-carboxainide]	42 nM	2%
CC1COc2ccc(S(=O)(=O)N3C[C@H](C(=O)Nc4ccc5scnc5c4)[C@@H](C)C3)cc21 (mixture of isomers) [Compound 133, (3R,4R)-N-(benzo[d]thiazol-5-yl)-4-methyl-1-((3-methyl-2,3-dihydrobenzofuran-5-yl)sulfonyl)pyrrolidine-3-carboxamide]	156 nM	3%
Cc1cc2c(cc1S(=O)(=O)N1CC[C@@H](C(=O)Nc3ccc4scnc4c3)C1)C(C)CO2 (mixture of isomers) [Compound 146, (3R)-N-(benzo[d]thiazol-5-yl)-1-((3,6-dimethyl-2,3-dihydrobenzofuran-5-yl)sulfonyl)pyrrolidinc-3-carboxamide]	74 nM	2%
O=C(Nc1ccc2scnc2c1)C1CCN(S(=O)(=O)c2ccc3c(c2)CCO3)C1 (racemic) [Compound 15, (rac)-N-(benzo[d]thiazol-5-yl)-1-((2,3-dihydrobcnzofuran-5-yl)sulfonyl)pyrrolidine-3-carboxamide]	47 nM	2%
O=C(Nc1ccc2scnc2c1)C12CC1CN(S(=O)(=O)c1ccc3c(c1)CCO3)C2 (racemic) [Compound 23, (rac)-N-(benzo[d]thiazol-5-yl)-3-((2,3-dihydrobenzofuran-5-yl)sulfonyl)-3-azabicyclo[3.1.0]hexane-1-carboxamide]	248 nM	2%
O=C(Nc1ccc2scnc2c1)C1CCN(S(=O)(=O)c2cccnc2)C1 (racemic) [Compound 38, (rac)-N-(benzo[d]thiazol-5-yl)-1-(pyridin-3-ylsulfonyl)pyrrolidine-3-carboxamide]	> 10000 nM	29%
O=C(Nc1ccc2scnc2c1)C12CC1CN(S(=O)(=O)c1cccnc1)C2 (racemic) [Compound 40, (rac)-N-(benzo[d]thiazol-5-yl)-3-(pyridin-3-ylsulfonyl)-3-azabicyclo[3.1.0]hexane-1-carboxamide]	> 10000 nM	53%
O=C(Nc1ccc2scnc2c1)C12CC1CN(S(=O)(=O)c1cc3c(cc1F)OCC3)C2 (racemic) [Compound 43, (rac)-N-(benzo[d]thiazol-5-yl)-3-((6-fluoro-2,3-dihydrobenzofuran-5-yl)sulfonyl)-3-azabicyclo[3.1.0]hexane-1-carboxamide]	202 nM	3%
O=C(Nc1ccc2scnc2c1)[C@H]1CCN(S(=O)(=O)c2ccc3c(c2)CCO3)C[C@H]1F (racemic) [Compound 69, cis-(rac)-N-(benzo[d]thiazol-5-yl)-1-((2,3-dihydrobenzofuran-5-yl)sulfonyl)-3-fluoropiperidine-4-carboxamide]	2280 nM	2%
O=C(Nc1ccc2scnc2c1)[C@H]1CCN(S(=O)(=O)c2ccc3ncsc3c2)C[C@H]1F (racemic) [Compound 70, cis-(rac)-N-(benzo[d]|thiazol-5-yl-1)-1-(benzo[d]thiazol-6-ylsulfonyl)-3-fluoropiperidine-4-carboxamide]	> 10000 nM	63%
O=C(Nc1ccc2scnc2c1)[C@H]1CCN(S(=O)(=O)c2ccc(Cl)nc2)C[C@H]1F (racemic) [Compound 71, cis-(rac)-N-(benzo[d]thiazol-5-yl)-1-((6-chloropyridin-3-yl)sulfonyl)-3-fluoropiperidine-4-carboxamide]	> 10000 nM	20%
O=C(Nc1ccc2scnc2c1)[C@H]1CCN(S(=O)(=O)c2cccnc2)C[C@H]1F (racemic) [Compound 72, cis-(rac)-N-(benzo[d]thiazol-5-yl)-3-fluoro-1-(pyridin-3-ylsulfonyl)piperidine-4-carboxamide]	> 10000 nM	13%
Cc1nn(C)cc1S(=O)(=O)N1CC[C@H](C(=O)Nc2ccc3scnc3c2)[C@H](F)C1 (racemic) [Compound 73, cis-(rac)-N-(benzo[d]thiazol-5-yl)-1-((1,3-dimethyl-1H-pyrazol-4-yl)sulfonyl)-3-fluoropiperidine-4-carboxamide]	> 10000 nM	45%
O=C(Nc1ccc2scnc2c1)[C@H]1CCN(S(=O)(=O)c2cccc3nsnc23)C[C@H]1F (racemic) [Compound 75, cis-(rac)-1-(benzo[c][1,2,5]thiadiazol-4-ylsulfonyl)-N-(benzo[d]thiazol-5-yl)-3-fluoropiperidine-4-carboxamide]	4260 nM	18%
O=C(Nc1ccc2scnc2c1)[C@H]1CCN(S(=O)(=O)c2ccc3ncsc3c2)C[C@@H]1F (racemic) [Compound 77, trans-(rac)-N-(benzo[d]thiazol-5-yl)-1-(benzo[d]thiazol-6-ylsulfony1)-3-fluoropiperidine-4-carboxamide]	209 nM	2%
O=C(Nc1ccc2scnc2c1)[C@H]1CCN(S(=O)(=O)c2ccc(Cl)nc2)C[C@@H]1F (racemic) [Compound 79, trans-(rac)-N-(benzo[d]thiazol-5-yl)-1-((6-chloropyridin-3-yl)sulfonyl)-3-fluoropiperidine-4-carboxamide]	139 nM	2%
Cc1nn(C)cc1S(=O)(=O)N1CC[C@H](C(=O)Nc2ccc3scnc3c2)[C@@H](F)C1 (racemic) [Compound 80, trans-(rac)-N-(benzo[d]thiazol-5-yl)-1-((1,3-dimethyl-1H-pyrazol-4-yl)sulfonyl1)-3-fluoropiperidine-4-carboxamide]	312 nM	3%
O=C(Nc1ccc2scnc2c1)[C@H]1CCN(S(=O)(=O)c2cccc3nsnc23)C[C@@H]1F (racemic) [Compound 81, trans-(rac)-1-(benzo[c][1,2,5]thiadiazol-4-ylsulfonyl)-N-(benzo[d]thiazol-5-yl)-3-fluoropiperidine-4-carboxamide]	500 nM	5%
O=C(Nc1ccc2scnc2c1)[C@H]1CCN(S(=O)(=O)c2cccnc2)C[C@@H]1F (racemic) [Compound 82, trans-(rac)-N-(benzo[d]thiazol-5-yl)-3-fluoro-1-(pyridin-3-ylsulfonyl)piperidine-4-carboxamide]	95 nM	2%
